# From US10004702B2, “Linear guanidine derivatives, methods of preparation and uses thereof” (LEAD DISCOVERY SIENA S.R.L., priority 2014, dated 2018)
# Where two headings read alike, the source gives them in different places.
# What was measured:
# Human Serum Albumin = Human Serum Albumin (Homo sapiens, UniProt P02768); experiment: Binding fluorimetric assay (tryptophan quenching); settings: fixed concentration of HSA titrated with different amounts of compound
# Procedure: The solutions were mixed and after allowing 30 minutes at room temperature to reach the equilibrium conditions, the spectra were recorded. […] The percentages obtained were plotted against the concentrations used and the KD values were calculated using GraphPad software (version 5.0).
# [1] = tested on: Achromobacter xylosoxidans AX 22; experiment: Antimicrobial susceptibility testing, MIC by microdilution broth method; format: cell-based; settings: 18-24 hours at 35-37° C.
# Procedure: (§1) Bacterial strains were obtained from the ATCC or CCUG culture collections or present in the authors' collection of clinical isolates. Compounds were re-suspended in dimethyl sulfoxyde (DMSO) at a final concentration of 10 mg/ml and subsequently diluted in the culture medium. The minimum inhibitory concentrations (MICs) of the compounds of the invention were determined using the microdilution broth method using Mueller-Hinton broth as recommended by the Clinical Laboratory Standards Institute (CLSI [11]). Bacterial inoculum was 5×10^4 CFU/well. MICs were recorded after 18-24 hours incubation at 35-37° C.
# [2] = tested on: Acinetobacter baumannii ATCC 17978; experiment: as above; format: cell-based; settings: 18-24 hours at 35-37° C.
# Procedure: as §1
# [3] = tested on: Alcaligenes faecalis 424/98; experiment: as above; format: cell-based; settings: Mueller-Hinton broth, 18-24 hours at 35-37° C.
# Procedure: as §1
# [4] = tested on: Bacillus subtilis ATCC 6633; experiment: as above; format: cell-based; settings: 18-24 hours at 35-37° C.
# Procedure: as §1
# Burkholderia cepacia RII = experiment: as above; format: cell-based; settings: Mueller-Hinton broth, 18-24 hours at 35-37° C.
# Procedure: as §1
# [5] = tested on: Chryseobacterium meningosepticum CCUG 4310; experiment: as above; format: cell-based; settings: 18-24 hours at 35-37° C.
# Procedure: as §1
# [6] = tested on: Enterococcus faecalis ATCC 19433; experiment: as above; format: cell-based; settings: 18-24 hours at 35-37° C.
# Procedure: as §1
# Escherichia coli CCUG^T = experiment: as above; format: cell-based; settings: Mueller-Hinton broth, 18-24 hours at 35-37° C.
# Procedure: as §1
# [7] = tested on: Klebsiella pneumoniae ATCC 13833; experiment: as above; format: cell-based; settings: 18-24 hours at 35-37° C.
# Procedure: as §1
# [8] = tested on: Pseudomonas aeruginosa ATCC 27853; experiment: as above; format: cell-based; settings: 18-24 hours at 35-37° C.
# Procedure: as §1
# [9] = tested on: Staphylococcus aureus ATCC 25923; experiment: as above; format: cell-based; settings: 18-24 hours at 35-37° C.
# Procedure: as §1
# [10] = tested on: Stenotrophomonas maltophilia 634/08; experiment: as above; format: cell-based; settings: Mueller-Hinton broth, 18-24 hours at 35-37° C.
# Procedure: as §1
# [11] = tested on: Acinetobacter baumannii AC-54/97 (IMP-2); experiment: as above; format: cell-based; settings: Acinetobacter baumannii AC-54/97 (IMP-2), Tables 2 and 3
# Procedure: as §1
# (§2) The Antibacterial activity of compound 28 was also tested on a panel of Gram-negative and Gram-positive clinical isolates, showing various antimicrobial susceptibility profiles (Table 4). The class of drugs for which the isolate was resistant to is indicated in column 2 (PEN, penicillins; ES-CEPH, expanded-spectrum cephalosporins; CARB, carbapenems; AZT; aztreonam; AG, aminoglycosides; FQ, fluoroquinolones; SXT, trimethoprim/sulfamethoxazole; FOS, fosfomycin; GLY, glycopeptides; LNZ, linezolid; COL-R, colistin resistant; COL-S colistin sensitive; PDR, poly-drug resistant).
# [12] = tested on: Enterobacter cloacae VA-417/02 (VIM-4); experiment: as above; format: cell-based; settings: Enterobacter cloacae VA-417/02 (VIM-4); Tables 2 and 3
# Procedure: as §1, §2
# [13] = tested on: Klebsiella pneumoniae 081R; experiment: as above; format: cell-based; settings: Tables 2 and 3
# Procedure: as §1, §2
# [14] = tested on: Gram-positive and Gram-negative organisms; experiment: Antimicrobial susceptibility testing, overall statements on the panel; format: cell-based; settings: overall comparison over the tested strains
# Procedure: as §1
# [15] = AX22, Mueller-Hinton broth, read-out: MIC
# [16] = ATCC17978, Mueller-Hinton broth, read-out: MIC
# [17] = ATCC6633, Mueller-Hinton broth, read-out: MIC
# [18] = Elizabethkingia meningoseptica, CCUG4310, Mueller-Hinton broth, read-out: MIC
# [19] = ATCC19433, Mueller-Hinton broth, read-out: MIC
# [20] = ATCC13833, Mueller-Hinton broth, read-out: MIC
# [21] = ATCC27853, Mueller-Hinton broth, read-out: MIC
# [22] = ATCC25923, Mueller-Hinton broth, read-out: MIC
# Human Serum Albumin, sequence (P02768 25-609): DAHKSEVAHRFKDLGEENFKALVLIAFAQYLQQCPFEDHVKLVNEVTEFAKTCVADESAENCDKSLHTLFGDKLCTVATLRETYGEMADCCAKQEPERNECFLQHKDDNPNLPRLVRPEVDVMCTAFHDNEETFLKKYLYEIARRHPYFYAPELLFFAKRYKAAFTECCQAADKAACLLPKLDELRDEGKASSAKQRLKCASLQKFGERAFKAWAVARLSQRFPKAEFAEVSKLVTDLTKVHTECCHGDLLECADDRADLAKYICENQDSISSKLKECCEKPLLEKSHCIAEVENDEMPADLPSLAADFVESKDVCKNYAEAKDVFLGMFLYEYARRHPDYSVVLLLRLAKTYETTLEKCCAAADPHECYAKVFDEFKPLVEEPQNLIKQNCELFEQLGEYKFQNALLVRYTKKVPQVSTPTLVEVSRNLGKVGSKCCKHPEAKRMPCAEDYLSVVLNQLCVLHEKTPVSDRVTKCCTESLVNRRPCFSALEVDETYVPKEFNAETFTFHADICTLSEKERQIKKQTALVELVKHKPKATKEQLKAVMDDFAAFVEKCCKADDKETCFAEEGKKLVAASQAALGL
SMILES,"MIC [1, 15] [µg/mL]","MIC [2, 16] [µg/mL]",MIC ([3]; read-out: MIC) [µg/mL],"MIC [4, 17] [µg/mL]",MIC (Burkholderia cepacia RII; read-out: MIC) [µg/mL],"MIC [5, 18] [µg/mL]","MIC [6, 19] [µg/mL]",MIC (Escherichia coli CCUG^T; read-out: MIC) [µg/mL],"MIC [7, 20] [µg/mL]","MIC [8, 21] [µg/mL]","MIC [9, 22] [µg/mL]",MIC ([10]; read-out: MIC) [µg/mL],MIC ([1]; Mueller-Hinton broth) [µg/mL],MIC ([2]; Mueller-Hinton broth) [µg/mL],MIC [3] [µg/mL],MIC ([4]; Mueller-Hinton broth) [µg/mL],MIC (Burkholderia cepacia RII) [µg/mL],MIC ([5]; Mueller-Hinton broth) [µg/mL],MIC ([6]; Mueller-Hinton broth) [µg/mL],MIC (Escherichia coli CCUG^T) [µg/mL],also measured
"NC(=O)N1c2ccccc2C=Cc2ccccc21 [CARBAMAZEPINE, Carbamazepine, reference compound]",,,,,,,,,,,,,,,,,,,,,intrinsic fluorescence decrease of HSA (Human Serum Albumin): remarkable intrinsic fluorescence decrease
"N=C(N)NCCCCCCCCN(CCCCCCCCNC(=N)NCC1CC1)C(=O)N(CCCCCCCCNC(=N)NCC1CC1)CCCCCCCCNC(=N)NC(=O)NCCCCCCCCNCCCCCCCCNC(=N)NCC1CC1 [Compound 32, 1,3-bis(8-(3-(cyclopropylmethyl)guanidino)octyl)-1-(8-guanidinooctyl)-3-(8-((3-(8-((8-(3-(cyclopropylmethyl))guanidinooctyl)amino)octyl)carbamoyl)guanidino)octyl)urea]",,,,,,,,,,,,,64,32,32,8,128,64,<0.125,8,MIC ([7]; Mueller-Hinton broth): 8 µg/mL; MIC ([8]; Mueller-Hinton broth): 32 µg/mL; MIC ([9]; Mueller-Hinton broth): 8 µg/mL; MIC [10]: 64 µg/mL; MIC [11]: 16 µg/mL; MIC [12]: 16 µg/mL; MIC [13]: 16 µg/mL; antimicrobial spectrum (in words) [14]: active against both Gram-positive and Gram-negative organisms
"N=C(N)NCCCCCCN(CCCCCCNC(=N)NCC1CC1)C(=O)NC(=N)NCCCCCCNCCCCCCNC(=N)NCC1CC1 [Compound 33, 1-(6-carbamimidamidohexyl)-1-[6-[[N-(cyclopropylmethyl)carbamimidoyl]amino]hexyl]-3-[N-[6-[6-[[N (cyclopropylmethyl)carbamimidoyl]amino]hexylamino]hexyl]carbamimidoyl]urea]",,,,,,,,,,,,,>256,256,>256,8,>256,>256,32,32,MIC ([7]; Mueller-Hinton broth): 64 µg/mL; MIC ([8]; Mueller-Hinton broth): >256 µg/mL; MIC ([9]; Mueller-Hinton broth): 16 µg/mL; MIC [10]: >256 µg/mL; MIC [11]: 8 µg/mL; MIC [12]: 64 µg/mL

# Now from value to compound, other results behind:
"MIC [1, 15] [µg/mL]","MIC [2, 16] [µg/mL]",MIC ([3]; read-out: MIC) [µg/mL],"MIC [4, 17] [µg/mL]",MIC (Burkholderia cepacia RII; read-out: MIC) [µg/mL],"MIC [5, 18] [µg/mL]","MIC [6, 19] [µg/mL]",MIC (Escherichia coli CCUG^T; read-out: MIC) [µg/mL],"MIC [7, 20] [µg/mL]","MIC [8, 21] [µg/mL]","MIC [9, 22] [µg/mL]",MIC ([10]; read-out: MIC) [µg/mL],SMILES,MIC ([1]; Mueller-Hinton broth) [µg/mL],MIC ([2]; Mueller-Hinton broth) [µg/mL],MIC [3] [µg/mL],MIC ([4]; Mueller-Hinton broth) [µg/mL],MIC (Burkholderia cepacia RII) [µg/mL],MIC ([5]; Mueller-Hinton broth) [µg/mL],MIC ([6]; Mueller-Hinton broth) [µg/mL],MIC (Escherichia coli CCUG^T) [µg/mL],also measured
> 256,> 256,32,< 0.125,128,> 256,8,> 256,> 256,> 256,4,> 256,"N=C(N)NCCCCCCCCN(CCCCCCCCNC(=N)NCC1CC1)C(=O)NC(=N)NCCCCCCCCNCCCCCCCCNC(=N)NCC1CC1 [Compound 30, 1-(8-carbamimidamidooctyl)-1-[8-[[N-(cyclopropylmethyl)carbamimidoyl]amino]octyl]-3-[N-[8-[8-[[N-(cyclopropylmethyl)carbamimidoyl]amino]octylamino]octyl]carbamimidoyl]urea]",,,,,,,,,"MIC ([11]; Acinetobacter baumannii, read-out: MIC): 32 µg/mL"
> 256,128,> 256,4,> 256,> 256,32,16,32,256,4,> 256,"N=C(N)NCCCCCCN(CCCCCCNC(=N)NCC1CC1)C(=O)N(CCCCCCNC(=N)N)CCCCCCNC(=N)NCC1CC1 [Compound 31, 1,3-bis(6-(3-(cyclopropylmethyl)guanidino)hexyl)-1,3-bis(6-guanidinohexyl)urea]",,,,,,,,,
